Source: EPA's ToxRefDB 2

What was measured:
rat [1] = conditions: Multigenerational reproductive toxicity study, sprague dawley, Oral, Feed, dose end: 2 generation
dog [2] = conditions: Chronic toxicity, beagle, Oral, Feed, dose end: 104 week, group: systemic
dog [3] = conditions: Chronic toxicity, beagle, Oral, Capsule, dose end: 52 week, group: systemic
dog [4] = conditions: Subchronic oral toxicity in nonrodent, beagle, Capsule, dose end: 98 day, group: systemic
rat [5] = conditions: Subchronic oral toxicity in rodents, sprague dawley, Feed, dose end: 90 day, group: systemic, systemic / pathology microscopic / stomach / hyperkeratosis + systemic / pathology microscopic / stomach / hyperplasia
mouse [6] = conditions: Carcinogenicity, cd1, Oral, Feed, dose end: 24 month, group: systemic
mouse [7] = conditions: Combined chronic toxicity/carcinogenicity; cd1; Oral; Feed; dose end: 24 month; group: systemic; systemic / pathology microscopic / stomach / carcinoma + systemic / organ weight / kidney / nos + systemic / organ weight / ovary / relative…
dog [8] = conditions: Subchronic oral toxicity in nonrodent, beagle, Capsule, dose end: 102 day, group: systemic
mouse [9] = conditions: Carcinogenicity, cd1, Oral, Feed, dose end: 104 week, group: systemic
rabbit [10] = conditions: Prenatal developmental toxicity study, new zealand white, Oral, Gavage/Intubation, dose end: 19 GD, group: maternal
rat [11] = conditions: Prenatal developmental toxicity study; wistar; Injection; Intravenous; dose end: 18 GD; group: maternal; systemic / in life observation / body weight / body weight gain + systemic / in life observation / clinical signs / motor activity + …
rat [12] = conditions: Subchronic oral toxicity in rodents, wistar, Gavage/Intubation, dose end: 90 day, group: systemic
mouse [13] = conditions: Subchronic oral toxicity in rodents, other, Gavage/Intubation, dose end: 90 day, group: systemic
rabbit [14] = conditions: Prenatal developmental toxicity study, himalayan, Injection, Intravenous, dose end: 18 GD
dog [15] = conditions: Chronic toxicity, beagle, Oral, Capsule, dose end: 1 year, group: systemic
dog [16] = conditions: Subchronic oral toxicity in nonrodent, beagle, Capsule, dose end: 3 month, group: systemic, systemic / clinical chemistry / alanine aminotransferase (alt/sgpt) / alanine aminotransferase (alt/sgpt)
dog [17] = conditions: Subchronic oral toxicity in nonrodent; beagle; Injection; Intravenous; dose end: 3 month; group: systemic; systemic / hematology / erythrocyte (rbc) count differential / erythrocyte (rbc) + systemic / hematology / hematocrit (hct) / hematocrit (…
rat [18] = conditions: Peri- and post-natal toxicity study (Segment III); wistar; Injection; Intravenous; dose end: 21 PND; group: parental; systemic / in life observation / body weight / body weight gain + systemic / in life observation / clinical signs / motor activity + …
dog [19] = conditions: Chronic toxicity, beagle, Oral, Capsule, dose end: 6 month, group: systemic
[20] = group: offspring, systemic / in life observation / body weight / offspring (pup) weight
[21] = group: parental, systemic / pathology microscopic / stomach / hyperkeratosis + systemic / pathology microscopic / stomach / hyperplasia + systemic / …
[22] = systemic / clinical chemistry / bilirubin / total bilirubin
[23] = systemic / clinical chemistry / alanine aminotransferase (alt/sgpt) / alanine aminotransferase (alt/sgpt)
[24] = systemic / in life observation / body weight / body weight gain
[25] = systemic / in life observation / body weight / body weight gain + systemic / clinical chemistry / alanine aminotransferase (alt/sgpt) / …
[26] = systemic / organ weight / liver / relative to body weight
[27] = systemic / pathology microscopic / kidney / hyperplasia + systemic / pathology microscopic / stomach / carcinoma + systemic / pathology …
[28] = systemic / in life observation / clinical signs / anorexia + systemic / in life observation / clinical signs / no feces
[29] = systemic / clinical chemistry / urea nitrogen / urea + systemic / hematology / blood clotting / blood clotting - clotting time + systemic / …
[30] = systemic / organ weight / liver / relative to body weight + systemic / organ weight / kidney / absolute
[31] = group: developmental, developmental / developmental malformation / general / crown-rump length + systemic / in life observation / body weight / fetal weight
[32] = group: maternal, systemic / in life observation / body weight / body weight gain + systemic / in life observation / clinical signs / [other] + systemic / in …
[33] = systemic / clinical chemistry / alanine aminotransferase (alt/sgpt) / alanine aminotransferase (alt/sgpt) + systemic / clinical chemistry / …
[34] = systemic / clinical chemistry / alanine aminotransferase (alt/sgpt) / alanine aminotransferase (alt/sgpt) + systemic / in life observation…

Compound: N#Cc1c(Cl)c(Cl)c(Cl)c(C#N)c1Cl [Chlorothalonil]
- LEL (rat [1]; [20]): 38 mg/kg/day
- LOAEL (rat [1]; [20]): 234 mg/kg/day
- NEL (rat [1]; [20]): < 38 mg/kg/day
- NOAEL (rat [1]; [20]): 115 mg/kg/day
- LEL (rat [1]; [21]): 38 mg/kg/day
- LOAEL (rat [1]; [21]): 38 mg/kg/day
- NEL (rat [1]; [21]): < 38 mg/kg/day
- NOAEL (rat [1]; [21]): < 38 mg/kg/day
- LEL (dog [2]; [22]): 1.8 mg/kg/day
- NEL (dog [2]; [22]): < 1.8 mg/kg/day
- LOAEL (dog [2]; systemic / pathology microscopic / kidney / vacuolization + systemic / clinical chemistry / bilirubin / total bilirubin): 3.5 mg/kg/day
- NOAEL (dog [2]; systemic / pathology microscopic / kidney / vacuolization + systemic / pathology microscopic / kidney / pigmentation): 1.8 mg/kg/day
- LEL (dog [3]; [23]): 15 mg/kg/day
- NEL (dog [3]; [23]): < 15 mg/kg/day
- LOAEL (dog [3]; [24]): 500 mg/kg/day
- NOAEL (dog [3]; [25]): 150 mg/kg/day
- LEL (dog [4]; [23]): 15 mg/kg/day
- NEL (dog [4]; [23]): < 15 mg/kg/day
- LOAEL (dog [4]; [24]): 150 mg/kg/day
- NOAEL (dog [4]; [25]): 15 mg/kg/day
- LEL (rat [5]): 2.3 mg/kg/day
- LOAEL (rat [5]): 2.3 mg/kg/day
- NEL (rat [5]): < 2.3 mg/kg/day
- NOAEL (rat [5]): < 2.3 mg/kg/day
- LOAEL (mouse [6]; systemic / in life observation / body weight / body weight): 225 mg/kg/day
- NOAEL (mouse [6]; systemic / in life observation / body weight / body weight + systemic / hematology / erythrocyte (rbc) count differential / erythrocyte (rbc…): 112 mg/kg/day
- LEL (mouse [6]; [26]): 56.2 mg/kg/day
- NEL (mouse [6]; [26]): < 56.2 mg/kg/day
- LEL (mouse [7]): 112 mg/kg/day
- LOAEL (mouse [7]): 112 mg/kg/day
- NEL (mouse [7]): < 112 mg/kg/day
- NOAEL (mouse [7]): < 112 mg/kg/day
- LEL (dog [8]; systemic / clinical chemistry / glucose / glucose): 15 mg/kg/day
- LOAEL (dog [8]; systemic / clinical chemistry / glucose / glucose + systemic / organ weight / liver / absolute + systemic / urinalysis / ph / ph): 50 mg/kg/day
- NOAEL (dog [8]; systemic / clinical chemistry / glucose / glucose + systemic / organ weight / liver / absolute + systemic / urinalysis / ph / ph + systemic…): 15 mg/kg/day
- NEL (dog [8]; systemic / clinical chemistry / glucose / glucose + systemic / urinalysis / ph / ph + systemic / hematology / erythrocyte (rbc) count …): 5 mg/kg/day
- LOAEL (mouse [9]; systemic / pathology microscopic / kidney / hyperplasia): 26.2 mg/kg/day
- NEL (mouse [9]; [27]): 1.5 mg/kg/day
- NOAEL (mouse [9]; [27]): 6 mg/kg/day
- LEL (mouse [9]; systemic / pathology microscopic / stomach / hyperkeratosis + systemic / pathology microscopic / stomach / hyperplasia): 6 mg/kg/day
- LOAEL (rabbit [10]; systemic / in life observation / body weight / body weight gain + systemic / in life observation / food consumption / food consumption): 500 mg/kg/day
- NOAEL (rabbit [10]; systemic / in life observation / body weight / body weight gain + systemic / in life observation / food consumption / food consumption + …): 250 mg/kg/day
- LEL (rabbit [10]; [28]): 250 mg/kg/day
- NEL (rabbit [10]; [28]): < 250 mg/kg/day

Compound: CC(C)c1ccc(C(=O)N=C(N)N)cc1S(C)(=O)=O.CS(=O)(=O)O [Cariporide mesylate]
- LEL (rat [11]): 125 mg/kg/day
- LOAEL (rat [11]): > 125 mg/kg/day
- NEL (rat [11]): 25 mg/kg/day
- NOAEL (rat [11]): ≥ 125 mg/kg/day
- LOAEL (rat [12]; [29]): 100 mg/kg/day
- NEL (rat [12]; [29]): 5 mg/kg/day
- NOAEL (rat [12]; [29]): 22 mg/kg/day
- LEL (rat [12]; [26]): 22 mg/kg/day
- NOAEL (mouse [13]; systemic / organ weight / liver / relative to body weight + systemic / in life observation / clinical signs / abnormal gait + systemic / in …): 250 mg/kg/day
- LEL (mouse [13]; [30]): 250 mg/kg/day
- LOAEL (mouse [13]; [30]): 500 mg/kg/day
- NEL (mouse [13]; [30]): < 250 mg/kg/day
- LEL (rabbit [14]; [31]): 40 mg/kg/day
- LOAEL (rabbit [14]; [31]): > 40 mg/kg/day
- NEL (rabbit [14]; [31]): 16 mg/kg/day
- NOAEL (rabbit [14]; [31]): ≥ 40 mg/kg/day
- LOAEL (rabbit [14]; [32]): > 40 mg/kg/day
- NEL (rabbit [14]; [32]): 6.3 mg/kg/day
- NOAEL (rabbit [14]; [32]): ≥ 40 mg/kg/day
- LEL (rabbit [14]; group: maternal, systemic / in life observation / clinical signs / piloerection + systemic / in life observation / food consumption / food consumption): 16 mg/kg/day
- LEL (dog [15]; [23]): 3.2 mg/kg/day
- NEL (dog [15]; [23]): < 3.2 mg/kg/day
- LOAEL (dog [15]; [33]): > 20 mg/kg/day
- NOAEL (dog [15]; [33]): ≥ 20 mg/kg/day
- LEL (dog [16]): 8 mg/kg/day
- LOAEL (dog [16]): > 20 mg/kg/day
- NEL (dog [16]): 3.2 mg/kg/day
- NOAEL (dog [16]): ≥ 20 mg/kg/day
- LEL (dog [17]): 1.25 mg/kg/day
- LOAEL (dog [17]): > 20 mg/kg/day
- NEL (dog [17]): < 1.25 mg/kg/day
- NOAEL (dog [17]): ≥ 20 mg/kg/day
- LEL (rat [18]): 125 mg/kg/day
- LOAEL (rat [18]): > 125 mg/kg/day
- NEL (rat [18]): 5 mg/kg/day
- NOAEL (rat [18]): ≥ 125 mg/kg/day
- LEL (dog [19]; [23]): 8 mg/kg/day
- LOAEL (dog [19]; [34]): > 20 mg/kg/day
- NEL (dog [19]; [34]): 3.2 mg/kg/day
- NOAEL (dog [19]; [34]): ≥ 20 mg/kg/day
